In data set [1] the test system is HCV GT-1b replicon. The following applies: HCV GT-1b replicon luciferase reporter assay (n ≥ 2); cited from earlier work. (In general: Replicon systems follow genome replication, usually without infectious particles.)
The test system of data set [2] is NS5B. The settings on record: cited from earlier work.
Data set [3] deals with HCV GT 1b subgenomic reporter replicon (strain Con1). Description: HCV GT 1b subgenomic replicon luciferase antiviral assay in Huh5-2 cells. The class given is cell-based. The settings on record: Huh5-2, GT 1b (Con1), F-Luc, 3 days, read-out: EC50 HCV Replicon 1b.
Data set [4] deals with HCV GT 3a (strain S52) replicon. Description: HCV GT 3a subgenomic replicon luciferase antiviral assay in Huh7.5-3a cells. In kind it is cell-based. The following applies: Hepatitis C virus, GT3A, 72 h; Huh7.5-3a, GT 3a (S52), F-Luc, 3 days; read-out: EC50 HCV Replicon 3a.
For data set [5], the system named is HCV GT 4a (strain ED43) replicon. Description: HCV GT 4a subgenomic replicon luciferase antiviral assay in Huh7.5-4a cells. The following applies: Hepatitis C virus, GT4A, 72 h; Huh7.5-4a, GT 4a (ED43), F-Luc, 3 days; read-out: EC50 HCV Replicon 4a. The class given is cell-based.
Data set [6] in a line: alamarBlue reduction cytotoxicity assay in replicon cells. The class given is cell-based. The following applies: human, HCV Replicon 1b cells. (Resazurin is reduced to fluorescent resorufin, in cell work by metabolically active cells.)
A short description of data set [7]: Water solubility by HPLC-UV after 24 h agitation. The following applies: thermodynamic from solid, deionized water, ambient temperature. The class given is physicochemical.
In data set [8] the test system is HCV GT 2a. Description: Activity against HCV GT 2a (data not shown). In kind it is cell-based.
Data set [9] concerns HCV GT-1b RNA (Con1 replicon). Description: Viral RNA quantification by RT-qPCR in Huh5-2 replicon cells. The class given is cell-based. The settings on record: (+) strand HCV RNA by RT-qPCR, Huh5-2 cells, normalized to YWHAZ. In general terms: Quantitative PCR measures a nucleic acid by following its amplification.
Data set [10] relates to HCV GT 1b (Con1). The data set is described as follows: Drug combination of 11a with daclatasvir in Huh5-2 replicon cells. In kind it is cell-based.
Data set [11] has as its system HCV GT-1b replicon containing Huh-7 cells. More on the design: method as in earlier work. The following applies: cited from earlier work.
[12] abbreviates: reported NS5B TP-2 inhibitors, Figure 1.
Where [13] appears, read: Hepatitis C virus, GT1B, Huh-5-2, 72 h.

In general, EC50 refers to the midpoint of the concentration-response curve. As a reminder, the IC50 is the midpoint of a concentration-inhibition curve. For orientation: CC50 means the concentration giving 50% cytotoxicity. The low end stands for harm at low concentration, the high end for better tolerance by the cells. As a reminder, the solubility is the concentration that dissolves in the medium under given conditions. Read a high solubility as a readily soluble substance. Broadly, the melting point is the temperature, or range, at which the solid turns liquid.

The structures appear in SMILES notation. In brackets after ≈: the same amount, converted by molar mass. Like-named read-outs stand apart in the source and are kept apart here.

With `Cc1ccc(S(=O)(=O)Nc2ccc(Oc3ccccc3)cc2C(=O)O)cc1` [V], in data set [1], the EC50 is more than 30 µM. The IC50 in data set [2] (setting [12]) is 0.22 µM.
On to `Cc1nc(=O)c2cc(NC(=O)COc3ccc(Cl)cc3)ccc2n1-c1ccccc1` [11b, 2-(4-Chlorophenoxy)-N-(2-methyl-4-oxo-1-phenyl-1,4-dihydroquinazolin-6-yl)acetamide], for which the melting point stood at 254 °C. Besides, the EC50 in data set [3] (setting [13]) is 1.38 ± 0.04 µM. For the same compound, the EC50 in data set [4] was found to be 11.7 ± 1.26 µM. Further, the EC50 in data set [5] is more than 10 µM. In data set [6], this compound showed a CC50 at 3 days of 99.01 ± 0.09 µM. In data set [7], this compound displayed a solubility at 24 h of 3.5 µg/mL (≈ 8.34 µM). For the same compound, in data set [8], the “activity against GT 2a” value is on record as “no activity”.
For `O=c1ncn(Cc2c(F)cc(F)cc2F)c2ccc(Oc3cccc(-c4ccccn4)c3C(F)(F)F)cc12` [VIII], the EC50 in data set [1] was 0.31 µM.
Take `Cc1cccc(-n2c(C)nc(=O)c3cc(NC(=O)COc4ccc(Cl)cc4)ccc32)c1` [11e, 2-(4-Chlorophenoxy)-N-(2-methyl-4-oxo-1-(m-tolyl)-1,4-dihydroquinazolin-6-yl)acetamide]: the melting point is 283 °C. Besides, in [3] (setting [13]), the EC50 is 6.24 ± 0.04 µM. In addition, in data set [4], the EC50 is 8.4 ± 0.15 µM. Besides, in data set [5], the EC50 amounted to 15.2 ± 0.29 µM. The compound further returned a CC50 at 3 days in [6] of 36.6 ± 4.19 µM. Further, in data set [8], the “activity against GT 2a” value is “no activity”.
As for `CC1CCC(C(=O)N(c2ccc(Oc3ncccc3C(F)(F)F)cc2C(=O)O)C(C)C)CC1` (centres unmarked) [VI], in [1], the EC50 is 0.095 µM. Further, the IC50 in data set [2] (setting [12]) was 0.08 µM.
For `CC1CCC(C(=O)N(c2cc(-c3ccccc3)sc2C(=O)O)C(C)C)CC1` (centres unmarked) [IV], the IC50 in [2] (setting [12]) was 0.028 µM.
As for `Cc1ccc(S(=O)(=O)Nc2cc(-c3ccc(F)cc3)sc2C(=O)O)cc1` [I], in data set [2] (setting [12]), the IC50 was 0.29 µM.
Turning to `Cc1ccc(OCC(=O)Nc2ccc3c(c2)c(=O)nc(C)n3-c2ccccc2)cc1` [11a, N-(2-Methyl-4-oxo-1-phenyl-1,4-dihydroquinazolin-6-yl)-2-(p-tolyloxy)acetamide], the melting point turned out to be 268 °C. Besides, the EC50 in [3] (setting [13]) came to 0.984 µM. Besides, the EC50 in [3] is 0.98 ± 0.06 µM. In addition, the EC50 in [4] was more than 10 µM. Moreover, the EC50 in data set [5] is more than 10 µM. Besides, the CC50 at 3 days in data set [6] was 157.5 ± 0.03 µM. The compound also showed an EC50 in data set [9] of 1.13 µM. The “Combinatory effect with daclatasvir” value in [10] (11a in combination with DCV, Huh5-2, in words) was “additive effect”. Moreover, the “CDI (coefficient of drug interaction)” value in data set [10] (11a with daclatasvir (DCV), Huh5-2) is recorded as “≈ 1”. Moreover, the CDI in data set [10] (DCV 30 pM + 11a 0.1 μM, Huh5-2) was 0.949. In addition, the CDI in data set [10] (DCV 30 pM + 11a 1 μM, Huh5-2) amounted to 0.995. The same compound displayed a solubility at 24 h in data set [7] of 2.7 µg/mL (≈ 6.76 µM).
`CC1CCC(C(=O)N(c2cc(C#CC(C)(C)C)sc2C(=O)O)C(C)C)CC1` (centres unmarked) [II]: the EC50 in data set [11] is 0.026 µM. Further, the IC50 in data set [2] (setting [12]) is 0.086 µM.
With `CCc1ccc(/C=C2\SC(N[C@H](C(=O)O)c3ccc(F)cc3)=NC2=O)o1` [III], in data set [2] (enzymatic assays), the IC50 was 3 µM.

The values above are taken from PMC9782603 (Viruses, 2022).
